In patent US6355799B1, “Substituted benzene compounds, process for their preparation, and herbicidal and defoliant compositions containing them” (ISK Americas Incorporated, priority 1997, dated 2002):

Tests used:
Assay type in all cases: in vivo
[1] = tested on: redroot pigweed (Amaranthus retroflexus, AMARE); assay: Pre-emerge test, greenhouse herbicide activity screening; details: rating scale 0-100, 14 days after application
Outline: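 Compounds in acetone were track-sprayed at 15-1000 g ai/ha (187 l/ha) on sandy loam pots: pre-emerge one day after seeding, post-emerge at 2-3 leaf stage with 0.25% v/v non-ionic surfactant. Phytotoxicity was rated 14 days later on a 0 (no damage) to 100 (complete death) scale.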

[2] = tested on: barnyardgrass (Echinochloa crus-galli, ECHCG); assay: as above; details: rating scale 0-100, 14 days after application
Outline: (§1)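 Rating: 0–100 visual injury, 14 DAA. Application: acetone, 187 l/ha, 15–1000 g ai/ha, flat-fan track sprayer with nozzle 40–45 cm above soil or canopy. Post-emerge runs used 0.25% v/v surfactant on 2–3 leaf plants.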

[3] = tested on: green foxtail (Setaria viridis, SETVI); assay: as above; details: rating scale 0-100, 14 days after application
Outline: as §1

[4] = tested on: ivyleaf morningglory (Ipomoea hederacea, IPOHE); assay: as above; details: rating scale 0-100, 14 days after application
Outline: as §1

[5] = tested on: johnsongrass (Sorghum halepense, SORHA); assay: as above; details: rating scale 0-100, 14 days after application
Outline: as §1

[6] = tested on: lambsquarters (Chenopodium album, CHEAL); assay: as above; details: rating scale 0-100, 14 days after application
Outline: as §1

[7] = tested on: large crabgrass (Digitaria sanguinalis, DIGSA); assay: as above; details: rating scale 0-100, 14 days after application
Outline: as §1

[8] = tested on: sicklepod (Cassia obtusifolia, CASOB); assay: as above; details: rating scale 0-100, 14 days after application
Outline: as §1

[9] = tested on: velvetleaf (Abutilon theophrasti, ABUTH); assay: as above; details: rating scale 0-100, 14 days after application
Outline: as §1

[10] = tested on: field corn (Zea mays L., var. Dekalb 535, CORN); assay: Pre-emerge test, crop safety; details: rating scale 0-100, 14 days after application
Outline: (§2)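 Fourteen days after spraying, crop and weed injury was graded visually from 0, no effect, to 100, every plant dead. Test substances were dissolved in acetone and applied at 15–1000 g ai/ha with a flat-fan nozzle. Application was either pre-emergence, one day after sowing, or post-emergence at the 2–3 leaf stage.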

[11] = tested on: upland rice (Oryza sp., var. Tebonnet, RICE); assay: Pre-emerge test, crop safety; details: rating scale 0-100, 14 days after application
Outline: as §2

[12] = tested on: barnyardgrass (Echinochloa crus-galli, ECHCG); assay: Post-emerge test, greenhouse herbicide activity screening; details: rating scale 0-100 (0 no damage, 100 complete death), 14 days after application
Outline: (§3)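 Compounds in acetone were track-sprayed at 15–1000 g ai/ha: pre-emergence onto soil sown the previous day, then top-watered to incorporate and later bottom-watered; post-emergence onto 2–3 leaf plants with 0.25% v/v surfactant, bottom-watered only. Ratings on a 0–100 phytotoxicity scale were taken at day 14.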

[13] = tested on: common ragweed (Ambrosia artemisizfolia L., AMBEL); assay: as above; details: rating scale 0-100 (0 no damage, 100 complete death), 14 days after application
Outline: as §3

[14] = tested on: green foxtail (Setaria viridis, SETVI); assay: as above; details: rating scale 0-100 (0 no damage, 100 complete death), 14 days after application
Outline: as §3

[15] = tested on: ivyleaf morningglory (Ipomoea hederacea, IPOHE); assay: as above; details: rating scale 0-100 (0 no damage, 100 complete death), 14 days after application
Outline: as §3

[16] = tested on: johnsongrass (Sorghum halepense, SORHA); assay: as above; details: rating scale 0-100 (0 no damage, 100 complete death), 14 days after application
Outline: as §3

[17] = tested on: lambsquarters (Chenopodium album, CHEAL); assay: as above; details: rating scale 0-100 (0 no damage, 100 complete death), 14 days after application
Outline: as §3

[18] = tested on: large crabgrass (Digitaria sanguinalis, DIGSA); assay: as above; details: rating scale 0-100 (0 no damage, 100 complete death), 14 days after application
Outline: as §3

[19] = tested on: redroot pigweed (Amaranthus retroflexus, AMARE); assay: as above; details: rating scale 0-100 (0 no damage, 100 complete death), 14 days after application
Outline: as §3

[20] = tested on: sicklepod (Cassia obtusifolia, CASOB); assay: as above; details: rating scale 0-100 (0 no damage, 100 complete death), 14 days after application
Outline: as §3

[21] = tested on: velvetleaf (Abutilon theophrasti, ABUTH); assay: as above; details: rating scale 0-100 (0 no damage, 100 complete death), 14 days after application
Outline: as §3

[22] = tested on: field corn (Zea mays L., var. Dekalb 535, CORN); assay: Post-emerge test, crop safety; details: rating scale 0-100 (0 no damage, 100 complete death), 14 days after application
Outline: (§4)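 Plants grown in 10 cm pots of sandy loam mix received acetone-dissolved compounds through a moving flat-fan nozzle. Doses ranged from 15 to 1000 g ai/ha. Pre-emerge pots were seeded one day earlier, post-emerge pots 8–21 days earlier. Fourteen days on, each pot was graded 0–100 for damage.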

[23] = tested on: upland rice (Oryza sp., var. Tebonnet, RICE); assay: Post-emerge test, crop safety; details: rating scale 0-100 (0 no damage, 100 complete death), 14 days after application
Outline: as §4

CCCOC(=O)C(C)(Cl)Cc1c(OC)c(Cl)cc(F)c1-n1c(=O)cc(C(F)(F)F)n(C)c1=O (centres unmarked) [14-35]
Pre-emerge herbicidal activity, phytotoxicity rating AMARE ([1]; 63 g ai/ha): 100
Pre-emerge herbicidal activity, phytotoxicity rating AMARE ([1]; 250 g ai/ha): 100
Pre-emerge herbicidal activity, phytotoxicity rating ECHCG ([2]; 63 g ai/ha): 0
Pre-emerge herbicidal activity, phytotoxicity rating ECHCG ([2]; 250 g ai/ha): 99
Pre-emerge herbicidal activity, phytotoxicity rating SETVI ([3]; 63 g ai/ha): 80
Pre-emerge herbicidal activity, phytotoxicity rating SETVI ([3]; 250 g ai/ha): 100
Pre-emerge herbicidal activity, phytotoxicity rating IPOHE ([4]; 63 g ai/ha): 0
Pre-emerge herbicidal activity, phytotoxicity rating IPOHE ([4]; 250 g ai/ha): 0
Pre-emerge herbicidal activity, phytotoxicity rating SORHA ([5]; 63 g ai/ha): 0
Pre-emerge herbicidal activity, phytotoxicity rating SORHA ([5]; 250 g ai/ha): 50
Pre-emerge herbicidal activity, phytotoxicity rating CHEAL ([6]; 63 g ai/ha): 50
Pre-emerge herbicidal activity, phytotoxicity rating CHEAL ([6]; 250 g ai/ha): 100
Pre-emerge herbicidal activity, phytotoxicity rating DIGSA ([7]; 63 g ai/ha): 50
Pre-emerge herbicidal activity, phytotoxicity rating DIGSA ([7]; 250 g ai/ha): 95
Pre-emerge herbicidal activity, phytotoxicity rating CASOB ([8]; 63 g ai/ha): 0
Pre-emerge herbicidal activity, phytotoxicity rating CASOB ([8]; 250 g ai/ha): 0
Pre-emerge herbicidal activity, phytotoxicity rating ABUTH ([9]; 63 g ai/ha): 100
Pre-emerge herbicidal activity, phytotoxicity rating ABUTH ([9]; 250 g ai/ha): 100
Pre-emerge phytotoxicity rating, crop damage CORN ([10]; 63 g ai/ha): 0
Pre-emerge phytotoxicity rating, crop damage CORN ([10]; 250 g ai/ha): 25
Pre-emerge phytotoxicity rating, crop damage RICE ([11]; 63 g ai/ha): 0
Pre-emerge phytotoxicity rating, crop damage RICE ([11]; 250 g ai/ha): 10
Post-emerge Herbicidal Activity, phytotoxicity rating ECHCG ([12]; Rate 63 g ai/ha): 100
Post-emerge Herbicidal Activity, phytotoxicity rating ECHCG ([12]; Rate 250 g ai/ha): 100
Post-emerge Herbicidal Activity, phytotoxicity rating AMBEL ([13]; Rate 63 g ai/ha): 100
Post-emerge Herbicidal Activity, phytotoxicity rating AMBEL ([13]; Rate 250 g ai/ha): 100
Post-emerge Herbicidal Activity, phytotoxicity rating SETVI ([14]; Rate 63 g ai/ha): 50
Post-emerge Herbicidal Activity, phytotoxicity rating SETVI ([14]; Rate 250 g ai/ha): 95
Post-emerge Herbicidal Activity, phytotoxicity rating IPOHE ([15]; Rate 63 g ai/ha): 70
Post-emerge Herbicidal Activity, phytotoxicity rating IPOHE ([15]; Rate 250 g ai/ha): 100
Post-emerge Herbicidal Activity, phytotoxicity rating SORHA ([16]; Rate 63 g ai/ha): 30
Post-emerge Herbicidal Activity, phytotoxicity rating SORHA ([16]; Rate 250 g ai/ha): 70
Post-emerge Herbicidal Activity, phytotoxicity rating CHEAL ([17]; Rate 63 g ai/ha): 100
Post-emerge Herbicidal Activity, phytotoxicity rating CHEAL ([17]; Rate 250 g ai/ha): 100
Post-emerge Herbicidal Activity, phytotoxicity rating DIGSA ([18]; Rate 63 g ai/ha): 50
Post-emerge Herbicidal Activity, phytotoxicity rating DIGSA ([18]; Rate 250 g ai/ha): 95
Post-emerge Herbicidal Activity, phytotoxicity rating AMARE ([19]; Rate 63 g ai/ha): 100
Post-emerge Herbicidal Activity, phytotoxicity rating AMARE ([19]; Rate 250 g ai/ha): 100
Post-emerge Herbicidal Activity, phytotoxicity rating CASOB ([20]; Rate 63 g ai/ha): 0
Post-emerge Herbicidal Activity, phytotoxicity rating CASOB ([20]; Rate 250 g ai/ha): 90
Post-emerge Herbicidal Activity, phytotoxicity rating ABUTH ([21]; Rate 63 g ai/ha): 95
Post-emerge Herbicidal Activity, phytotoxicity rating ABUTH ([21]; Rate 250 g ai/ha): 100
Post-emerge phytotoxicity rating CORN (crop damage) ([22]; Rate 63 g ai/ha): 100
Post-emerge phytotoxicity rating CORN (crop damage) ([22]; Rate 250 g ai/ha): 100
Post-emerge phytotoxicity rating RICE (crop damage) ([23]; Rate 63 g ai/ha): 80
Post-emerge phytotoxicity rating RICE (crop damage) ([23]; Rate 250 g ai/ha): 100

CCCCCOC(=O)C(C)(Cl)Cc1c(OC)c(Cl)cc(F)c1-n1c(=O)cc(C(F)(F)F)n(C)c1=O (centres unmarked) [14-37]
Pre-emerge herbicidal activity, phytotoxicity rating AMARE ([1]; 63 g ai/ha): 100
Pre-emerge herbicidal activity, phytotoxicity rating AMARE ([1]; 250 g ai/ha): 100
Pre-emerge herbicidal activity, phytotoxicity rating ECHCG ([2]; 63 g ai/ha): 0
Pre-emerge herbicidal activity, phytotoxicity rating ECHCG ([2]; 250 g ai/ha): 99
Pre-emerge herbicidal activity, phytotoxicity rating SETVI ([3]; 63 g ai/ha): 0
Pre-emerge herbicidal activity, phytotoxicity rating SETVI ([3]; 250 g ai/ha): 95
Pre-emerge herbicidal activity, phytotoxicity rating IPOHE ([4]; 63 g ai/ha): 0
Pre-emerge herbicidal activity, phytotoxicity rating IPOHE ([4]; 250 g ai/ha): 0
Pre-emerge herbicidal activity, phytotoxicity rating SORHA ([5]; 63 g ai/ha): 0
Pre-emerge herbicidal activity, phytotoxicity rating SORHA ([5]; 250 g ai/ha): 0
Pre-emerge herbicidal activity, phytotoxicity rating CHEAL ([6]; 63 g ai/ha): 100
Pre-emerge herbicidal activity, phytotoxicity rating CHEAL ([6]; 250 g ai/ha): 100
Pre-emerge herbicidal activity, phytotoxicity rating DIGSA ([7]; 63 g ai/ha): 0
Pre-emerge herbicidal activity, phytotoxicity rating DIGSA ([7]; 250 g ai/ha): 100
Pre-emerge herbicidal activity, phytotoxicity rating CASOB ([8]; 63 g ai/ha): 0
Pre-emerge herbicidal activity, phytotoxicity rating CASOB ([8]; 250 g ai/ha): 0
Pre-emerge herbicidal activity, phytotoxicity rating ABUTH ([9]; 63 g ai/ha): 90
Pre-emerge herbicidal activity, phytotoxicity rating ABUTH ([9]; 250 g ai/ha): 100
Pre-emerge phytotoxicity rating, crop damage CORN ([10]; 63 g ai/ha): 0
Pre-emerge phytotoxicity rating, crop damage CORN ([10]; 250 g ai/ha): 0
Pre-emerge phytotoxicity rating, crop damage RICE ([11]; 63 g ai/ha): 0
Pre-emerge phytotoxicity rating, crop damage RICE ([11]; 250 g ai/ha): 80
Post-emerge Herbicidal Activity, phytotoxicity rating ECHCG ([12]; Rate 63 g ai/ha): 100
Post-emerge Herbicidal Activity, phytotoxicity rating ECHCG ([12]; Rate 250 g ai/ha): 100
Post-emerge Herbicidal Activity, phytotoxicity rating AMBEL ([13]; Rate 63 g ai/ha): 100
Post-emerge Herbicidal Activity, phytotoxicity rating AMBEL ([13]; Rate 250 g ai/ha): 100
Post-emerge Herbicidal Activity, phytotoxicity rating SETVI ([14]; Rate 63 g ai/ha): 90
Post-emerge Herbicidal Activity, phytotoxicity rating SETVI ([14]; Rate 250 g ai/ha): 100
Post-emerge Herbicidal Activity, phytotoxicity rating IPOHE ([15]; Rate 63 g ai/ha): 30
Post-emerge Herbicidal Activity, phytotoxicity rating IPOHE ([15]; Rate 250 g ai/ha): 100
Post-emerge Herbicidal Activity, phytotoxicity rating SORHA ([16]; Rate 63 g ai/ha): 0
Post-emerge Herbicidal Activity, phytotoxicity rating SORHA ([16]; Rate 250 g ai/ha): 30
Post-emerge Herbicidal Activity, phytotoxicity rating CHEAL ([17]; Rate 63 g ai/ha): 100
Post-emerge Herbicidal Activity, phytotoxicity rating CHEAL ([17]; Rate 250 g ai/ha): 100
Post-emerge Herbicidal Activity, phytotoxicity rating DIGSA ([18]; Rate 63 g ai/ha): 80
Post-emerge Herbicidal Activity, phytotoxicity rating DIGSA ([18]; Rate 250 g ai/ha): 100
Post-emerge Herbicidal Activity, phytotoxicity rating AMARE ([19]; Rate 63 g ai/ha): 100
Post-emerge Herbicidal Activity, phytotoxicity rating AMARE ([19]; Rate 250 g ai/ha): 100
Post-emerge Herbicidal Activity, phytotoxicity rating CASOB ([20]; Rate 63 g ai/ha): 20
Post-emerge Herbicidal Activity, phytotoxicity rating CASOB ([20]; Rate 250 g ai/ha): 50
Post-emerge Herbicidal Activity, phytotoxicity rating ABUTH ([21]; Rate 63 g ai/ha): 100
Post-emerge Herbicidal Activity, phytotoxicity rating ABUTH ([21]; Rate 250 g ai/ha): 100
Post-emerge phytotoxicity rating CORN (crop damage) ([22]; Rate 63 g ai/ha): 20
Post-emerge phytotoxicity rating CORN (crop damage) ([22]; Rate 250 g ai/ha): 95
Post-emerge phytotoxicity rating RICE (crop damage) ([23]; Rate 63 g ai/ha): 70
Post-emerge phytotoxicity rating RICE (crop damage) ([23]; Rate 250 g ai/ha): 100
